Experimental data reported in patent publication US8815919B2, “Oxadiazole derivatives” (Merck Serono SA, priority 2009, dated 2014).
Where a name gives a salt, the structure may show the parent alone. Read-outs that look alike come from different tables or passages of the source.

Experiments:
[1] = target: T1, S1P1 (Homo sapiens, UniProt P21453); test: 35S-GTPγS binding on membranes of CHO cells expressing S1P1; format: biochemical; settings: read-out: S1P1/GTPG EC50
Description: (§1) Membranes were prepared from CHO cells expressing S1P1 or S1P3 for use in ligand and […] binding studies. Cells were suspended in 50 mM TRIS, pH 7.4, 2 mM EDTA, 250 mM Sucrose (buffer A) and 1× Complete protease inhibitor cocktail (Roche), and disrupted at 4° C. by N2 decompression using a cell disruption bomb (Parr Instrument). Following centrifugation at 1000 RPM for 10 min at 4° C., the supernatant was diluted (2×) in buffer A and centrifuged again at 19000 RPM for 75 min at 4° C. The pellet was then suspended in 10 mM HEPES, pH 7.4, 1 mM EDTA, 250 mM Sucrose (Buffer B), and 1× Complete EDTA-free protease inhibitor cocktail and homogenized using a potter. Membranes were flash frozen in liquid N2 and stored at −80° C.
(§2) Membranes (1 to 10 μg protein) prepared as described above, were incubated in 96-well Scintiplates (PerkinElmer) with test compounds diluted in DMSO, in 140 μl of 20 mM HEPES, pH 7.4, 10 mM MgCl2, 2 μg/well Saponin, 0.2% fatty acid free BSA (Assay buffer), 125 mM NaCl and 1.5 μM GDP. The assay was initiated with the addition of 60 μl of 1.5 nM [35S]-GTPγS (1100 Ci/mmol; GE Healthcare) in assay buffer. After 60 min incubation at 30° C. on a shaker, plates were centrifuged for 10 min at 2000 RPM. Supernatant was discarded and membrane bound radioactivity was measured on a PerkinElmer 1450 MicroBeta counter. Triplicate samples were averaged and expressed as % response relative to S1P activation in absence of compound (n=2).
(§3) The “potency” or the “activity” of the compounds is determined by the EC50 values as evaluated in the above described 35S-GTPγS binding assay.
Target sequence in this assay (P21453 whole entry, species assumed): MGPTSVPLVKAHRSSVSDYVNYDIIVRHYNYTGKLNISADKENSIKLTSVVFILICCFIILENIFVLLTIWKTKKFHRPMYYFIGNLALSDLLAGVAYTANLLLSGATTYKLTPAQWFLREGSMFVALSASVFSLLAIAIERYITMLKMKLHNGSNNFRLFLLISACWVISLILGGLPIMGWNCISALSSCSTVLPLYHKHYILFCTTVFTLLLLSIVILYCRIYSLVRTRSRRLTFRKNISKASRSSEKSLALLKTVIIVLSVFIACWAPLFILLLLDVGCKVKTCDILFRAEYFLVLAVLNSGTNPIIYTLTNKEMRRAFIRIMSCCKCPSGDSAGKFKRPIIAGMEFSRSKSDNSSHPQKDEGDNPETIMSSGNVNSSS

[2] = target: T2, S1P3 (Homo sapiens, UniProt Q99500); test: 35S-GTPγS binding on membranes of CHO cells expressing S1P3; format: biochemical; settings: read-out: S1P3/GTPG EC50
Description: as §1, §2, §3

[3] = target: T1, S1P1; test: S1P1 internalization assay in S1P1-U2OS cells (S1P1-EGFP), cell imaging; format: cell-based; parameters: host or cells: U2OS (human bone osteosarcoma epithelial cells), CMV promoter, geneticin selection; settings: 1 hour incubation
How it was run: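 U2OS cells stably expressing human S1P1-EGFP, plated overnight in 1% FCS medium, then serum-starved 2 h in 0.1% fatty-acid-free BSA before 1 h compound exposure at 37 °C. After PFA fixation and Hoechst staining, internalization imaged as EGFP spot count per nucleus.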
Target sequence in this assay (P21453 whole entry): as the sequence (P21453 whole entry, species assumed) above

[4] = target: T1, S1P1; test: Receptor binding assay, [33P]sphingosine 1-phosphate competition, S1P1 membranes, WGA SPA beads
How it was run: (§4)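 Competition of [33P]S1P ([…]) on CHO cell membranes with WGA SPA beads in 50 mM HEPES pH 7.5, 5 mM MgCl2, 100 mM NaCl, 0.4% fatty acid-free BSA; 60 min at RT. Triplicates normalised to total binding and nonspecific binding (1000-fold excess unlabeled S1P).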
Target sequence in this assay (P21453 whole entry, species assumed): as above

[5] = target: T2, S1P3; test: Receptor binding assay, [33P]sphingosine 1-phosphate competition, S1P3 membranes, WGA SPA beads
How it was run: as §4

[6] = 96 well-plate, read-out: S1P1 binding Ki (M) (96 well-plate)
[7] = 96 well-plate, read-out: S1P3 binding Ki (M) (96 well-plate)
[8] = 384 well-plate, read-out: S1P3 binding Ki (M) (384 well-plate)

T2 sequence (Q99500 whole entry, species assumed): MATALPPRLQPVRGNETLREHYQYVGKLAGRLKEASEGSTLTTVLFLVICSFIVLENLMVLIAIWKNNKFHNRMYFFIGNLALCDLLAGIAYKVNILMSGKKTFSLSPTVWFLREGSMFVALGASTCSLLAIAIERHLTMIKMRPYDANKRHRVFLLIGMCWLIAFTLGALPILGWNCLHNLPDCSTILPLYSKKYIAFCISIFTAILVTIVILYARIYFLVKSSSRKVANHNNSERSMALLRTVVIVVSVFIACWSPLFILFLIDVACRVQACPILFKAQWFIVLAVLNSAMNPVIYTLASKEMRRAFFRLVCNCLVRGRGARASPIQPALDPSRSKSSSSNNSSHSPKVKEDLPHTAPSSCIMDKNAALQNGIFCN

| Structure (SMILES) | melting point [°C] | EC50 [1] [nM] | EC50 [2] [nM] | EC50 [3] [nM] | Ki [4, 6] [M] | Ki ([4]; 384 well-plate, read-out: S1P1 binding Ki (M) (384 well-plate)) | Ki [5, 7] [M] | Ki [5, 8] [M] |
| --- | --- | --- | --- | --- | --- | --- | --- | --- |
| COCc1cc(-c2nc(-c3cccc(CN(C)CC(=O)O)c3)no2)ccc1-c1cccc(F)c1C (as salt: hydrochloride) [Example 35, N-(3-{5-[3′-fluoro-2-(methoxymethyl)-2′-methylbiphenyl-4-yl]-1,2,4-oxadiazol-3-yl}benzyl)-N-methylglycine, hydrochloride salt] | 216 to 218 | – | – | – | – | – | – | – |
| COCc1cc(-c2nc(-c3cc(F)cc(CN(C)CCC(=O)O)c3)no2)ccc1-c1ccccc1C [Example 21, N-(3-fluoro-5-{5-[2-(methoxymethyl)-2′-methylbiphenyl-4-yl]-1,2,4-oxadiazol-3-yl}benzyl)-N-methyl-beta-alanine, hydrochloride salt] | – | 0.332 | 15 | 4.52 | 1.17e-10 | 9.99e-10 | 1.13e-08 | 1.56e-08 |
| Cc1cc(-c2nc(-c3ccc(CN(C)CC(=O)O)cc3)no2)ccc1-c1ccccc1C(F)F (as salt: hydrochloride) [Example 137, N-(4-{5-[2′-(difluoromethyl)-2-methylbiphenyl-4-yl]-1,2,4-oxadiazol-3-yl}benzyl)-N-methylglycine, hydrochloride salt] | 229 to 234 | – | – | – | – | – | – | – |
| COCc1cc(-c2nc(-c3cccc(S(C)(=O)=O)c3)no2)ccc1N1CCCCC1C (stereo not shown) [Example 6, 1-(2-(methoxymethyl)-4-{3-[3-(methylsulfonyl)phenyl]-1,2,4-oxadiazol-5-yl}phenyl)-2-methylpiperidine, hydrochloride salt] | – | 1.9 | 2280 | 4.39 | 1.24e-09 | – | – | – |
| COC(C)c1cc(-c2nc(-c3ccc(CN(C)CC(=O)O)cc3)no2)ccc1-c1ccccc1C (stereo not shown) (as salt: hydrochloride) (hydrate or solvate) [Example 140, N-(4-{5-[2-(1-methoxyethyl)-2′-methylbiphenyl-4-yl]-1,2,4-oxadiazol-3-yl}benzyl)-N-methylglycine, hydrochloride salt] | 179 to 181 | – | – | – | – | – | – | – |
| COCc1cc(-c2nc(-c3cccc(COCCC(=O)O)c3)no2)ccc1-c1ccccc1C [Example 7, 3-[(3-{5-[2-(methoxymethyl)-2′-methylbiphenyl-4-yl]-1,2,4-oxadiazol-3-yl}benzyl)oxy]propanoic acid] | – | 8.05 | 2010 | 25.5 | 3.29e-09 | – | – | – |
| COCc1cc(-c2nc(-c3cccc(CN(C)CC(=O)O)c3)no2)ccc1-c1cc(F)ccc1C (as salt: hydrochloride) [Example 37, N-(3-{5-[5′-fluoro-2-(methoxymethyl)-2′-methylbiphenyl-4-yl]-1,2,4-oxadiazol-3-yl}benzyl)-N-methylglycine, hydrochloride salt] | 177 to 183 | – | – | – | – | – | – | – |
| CC1CCCCN1c1ccc(-c2nc(-c3cccc(CN(C)CC(=O)O)c3)no2)cc1C(F)(F)F (stereo not shown) [Example 13, N-methyl-N-(3-{5-[4-(2-methylpiperidin-1-yl)-3-(trifluoromethyl)phenyl]-1,2,4-oxadiazol-3-yl}benzyl)glycine] | – | 0.96 | 470 | 7.38 | 4.58e-10 | – | 8.95e-08 | 2.75e-07 |
| COCc1cc(-c2nc(-c3cccc(CN(C)CC(=O)O)c3)no2)ccc1-c1ccc(F)cc1C (as salt: hydrochloride) [Example 36, N-(3-{5-[4′-fluoro-2-(methoxymethyl)-2′-methylbiphenyl-4-yl]-1,2,4-oxadiazol-3-yl}benzyl)-N-methylglycine, hydrochloride salt] | 214 to 216 | – | – | – | – | – | – | – |
| COCc1cc(-c2nc(-c3ccc(F)c(CN(C)CCC(=O)O)c3)no2)ccc1N1CCCCC1C (stereo not drawn) [Example 19, N-(2-fluoro-5-{5-[3-(methoxymethyl)-4-(2-methylpiperidin-1-yl)phenyl]-1,2,4-oxadiazol-3-yl}benzyl)-N-methyl-beta-alanine, dihydrochloride salt] | – | 0.545 | 34.4 | – | 1.94e-10 | – | – | – |
| COCc1cc(-c2nc(-c3cccc(CN(C)CC(=O)O)c3)no2)ccc1-c1ccccc1F [Example 10, N-(3-{5-[2′-fluoro-2-(methoxymethyl)biphenyl-4-yl]-1,2,4-oxadiazol-3-yl}benzyl)-N-methylolycine, hydrochloride salt] | – | 0.907 | 130 | 3.31 | 1.79e-10 | – | 2.33e-08 | 1.22e-07 |
| COCc1cc(-c2nc(-c3ccc(C(=O)NCCC(=O)O)c(Cl)c3)no2)ccc1-c1ccccc1C [Example 15, N-(2-chloro-4-{5-[2-(methoxymethyl)-2′-methylbiphenyl-4-yl]-1,2,4-oxadiazol-3-yl}benzoyl)-beta-alanine] | – | 20.9 | 553 | – | 1.06e-09 | – | – | – |
| COCc1cc(-c2nc(-c3ccc(CN(C)CC(=O)O)cc3)no2)ccc1-c1ccccc1Cl (as salt: hydrochloride) [Example 118, N-(4-{5-[2′-chloro-2-(methoxymethyl)biphenyl-4-yl]-1,2,4-oxadiazol-3-yl}benzyl)-N-methylglycine, hydrochloride salt] | 194 to 200 | – | – | – | – | – | – | – |
| COCc1cc(-c2nc(-c3ccc(CN(C)CC(=O)O)c(F)c3)no2)ccc1-c1ccccc1Cl (as salt: hydrochloride) [Example 119, N-(4-{5-[2′-chloro-2-(methoxymethyl)biphenyl-4-yl]-1,2,4-oxadiazol-3-yl}-2-fluorobenzyl)-N-methylglycine, hydrochloride salt] | 181 to 188 | – | – | – | – | – | – | – |
| COCc1cc(-c2nc(-c3cccc(COCC(=O)O)c3)no2)ccc1N1CCCCC1C (stereo not shown) [Example 4, [(3-{5-[3-(methoxymethyl)-4-(2-methylpiperidin-1-yl)phenyl]-1,2,4-oxadiazol-3-yl}benzyl)oxy]acetic acid, hydrochloride salt] | – | 1.05 | 313 | – | 4.76e-10 | – | – | 7.53e-07 |
| CC1CCCCN1c1ccc(-c2nc(-c3cccc(COCCC(=O)O)c3)no2)cc1C(F)(F)F (stereo not shown) [Example 12, 3-[(3-{5-[4-(2-methylpiperidin-1-yl)-3-(trifluoromethyl)phenyl]-1,2,4-oxadiazol-3-yl}benzyl)oxy]propanoic acid, hydrochloride salt] | – | 4.61 | 692 | 9.84 | 3.08e-09 | – | – | – |
| COCc1cc(-c2nc(-c3cccc(CN(C)CC(=O)O)c3)no2)ccc1-c1ccccc1Cl [Example 11, N-(3-{5-[2′-chloro-2-(methoxymethyl)biphenyl-4-yl]-1,2,4-oxadiazol-3-yl}benzyl)-N-methylglycine, hydrochloride salt] | – | 2.74 | 673 | 10.6 | 6.21e-10 | – | – | – |
| COCc1cc(-c2nc(-c3ccc(OCCO)cc3)no2)ccc1-c1ccccc1C [Example 23, 2-(4-{5-[2-(methoxymethyl)-2′-methylbiphenyl-4-yl]-1,2,4-oxadiazol-3-yl}phenoxy)ethanol] | – | 7.07 | 199 | – | 2.17e-09 | – | – | – |
